Laboratory results reported in patent US6706257B1, “Sunless tanning products and processes” (Discovery Partners, LLC, priority 2001, dated 2004).

How the values were obtained:
skin = assay: Tanning effect of MSM additions to DHA formulas or accelerators; format: in vivo, human
Source text: Applicant has conducted experiments with a typical oil-in-water self tanning cream containing DHA as the self tanning agent with or without the inclusion of MSM. […] Applicant also conducted experiments with DHA containing self-tanning liquid mousse compositions, with and without MSM.

[1] = Solubility of MSM in water; format: physicochemical; details: by weight

Compound: CS(C)(=O)=O [MSM, methylsulfonyl methane]
- tanning effect (skin; 0.1% addition of MSM): ineffective
- tanning effect (skin; addition of 5% MSM to DHA formulas, with or without soluble dyes): enhances tanning effect producing a more intense hue that lasts longer
- solubility of MSM in water [1]: ~20%
